Measurements as given in patent US20250025550A1, “ADJUVANT COMPOUNDS AND FORMULATIONS” (ADJUVANCE TECHNOLOGIES, INC., priority 2021, published 2025).

Assays:
CD-i mice = test: TQL-1055 HP-β-CD dose ranging study: weight loss and survival; details: for Deaths (D 7) / Deaths (D 21): CD-1 mice, I.M.; for Deaths (D 7): post dose 1; for Deaths (D 21): post dose 2 (day 14)
[1] = test system: mouse strains (C57BL/6J, BALB/cJ, CD-i); test: Tolerability (mortality) of soluble TQL-1055 formulations across three mouse strains; format: in vivo
Protocol: The tolerability of soluble TQL-1055 formulations, including TQL-1055 FA (free acid) HP-β-CD and TQL-1055 ISKS (in situ potassium salt) HP-β-CD formulations, administered over a range of doses was examined across three mouse strains (C57BL/6J, BALB/cJ, CD-i). The following experimental groups were used. I.M. administration was performed.
The mortality rate 7 days after injection was observed.
A Logrank (Mantel-Cox) test was performed to assess survival distributions of the foregoing groups.

[2] = test system: cancer patients; well (non-cancer) adult and child recipients; details: cited from earlier work
[3] = no antigen, HPβCD dose equivalent to group 4
[4] = with 0.1 μg PR8 HA, HPβCD dose equivalent to group 4

Molecule: QS-21
- Deaths (D 7) (CD-i mice; with 0.1 μg PR8 HA, 25 μg): 0/10
- Deaths (D 7) (CD-i mice; with 0.1 μg PR8 HA, 50 μg): 0/10
- Deaths (D 7) (CD-i mice; with 0.1 μg PR8 HA, 100 μg): 2/10
- Deaths (D 21) (CD-i mice; with 0.1 μg PR8 HA, 25 μg): 0/10
- Deaths (D 21) (CD-i mice; with 0.1 μg PR8 HA, 50 μg): 0/10
- Deaths (D 21) (CD-i mice; with 0.1 μg PR8 HA, 100 μg): 0/8
- Deaths ([1]; BALB/cJ mice, 20 μg I.M., 7 days after injection): 0/10
- Deaths ([1]; BALB/cJ mice, 40 μg I.M., 7 days after injection): 0/10
- Deaths ([1]; BALB/cJ mice, 60 μg I.M., 7 days after injection): 0/10
- Deaths ([1]; BALB/cJ mice, 80 μg I.M., 7 days after injection): 0/10
- Deaths ([1]; BALB/cJ mice, 100 μg I.M., 7 days after injection): 0/10
- Deaths ([1]; C57BL/6J mice, 20 μg I.M., 7 days after injection): 0/10
- Deaths ([1]; C57BL/6J mice, 40 μg I.M., 7 days after injection): 2/10
- Deaths ([1]; C57BL/6J mice, 60 μg I.M., 7 days after injection): 0/10
- Deaths ([1]; C57BL/6J mice, 80 μg I.M., 7 days after injection): 5/10
- Deaths ([1]; C57BL/6J mice, 100 μg I.M., 7 days after injection): 10/10
- Role of mouse strain in tolerability ([1]; C57BL/6J, BALB/cJ, CD-1 compared): C57BL/6 mice appear to be more sensitive
- Deaths ([1]; CD-1 mice, 20 μg I.M., 7 days after injection): 0/10
- Deaths ([1]; CD-1 mice, 40 μg I.M., 7 days after injection): 0/10
- Deaths ([1]; CD-1 mice, 60 μg I.M., 7 days after injection): 0/10
- Deaths ([1]; CD-1 mice, 80 μg I.M., 7 days after injection): 0/10
- Deaths ([1]; CD-1 mice, 100 μg I.M., 7 days after injection): 0/10
- Mortality ([1]; all three mouse strains, 20-100 μg I.M., 7 days after injection): at least some mice in the other groups (including QS-21) died
- tolerated dose ([2]; cancer patients, above it significant local and systemic side effects arise): 100 to 150 µg
- highest practical tolerable dose ([2]; well (non-cancer) adult and child recipients): 25 to 50 µg

Molecule: CC1O[C@@H](OC2C(O)[C@@H](NC(=O)CCCCCCCCCCC(=O)O)C(CO)O[C@H]2OC(=O)[C@]23CCC(C)(C)CC2C2=CCC4C5(C)CC[C@H](O)[C@](C)(C=O)[C@@H]5CC[C@]4(C)[C@]2(C)CC3O)C(O)C(O)[C@H]1O[C@@H]1OC[C@@H](O)C(O)C1O (stereo partly drawn) [TQL1055 FA]
- Deaths (D 7) (CD-i mice; no antigen, 50 μg): 0/10
- Deaths (D 7) (CD-i mice; no antigen, 100 μg): 0/10
- Deaths (D 7) (CD-i mice; no antigen, 200 μg): 0/10
- Deaths (D 7) (CD-i mice; with 0.1 μg PR8 HA, 50 μg): 0/10
- Deaths (D 7) (CD-i mice; with 0.1 μg PR8 HA, 100 μg): 0/10
- Deaths (D 7) (CD-i mice; with 0.1 μg PR8 HA, 198.68 μg): 0/10
- Deaths (D 21) (CD-i mice; no antigen, 50 μg): 0/10
- Deaths (D 21) (CD-i mice; no antigen, 100 μg): 0/10
- Deaths (D 21) (CD-i mice; no antigen, 200 μg): 0/10
- Deaths (D 21) (CD-i mice; with 0.1 μg PR8 HA, 50 μg): 0/10
- Deaths (D 21) (CD-i mice; with 0.1 μg PR8 HA, 100 μg): 0/10
- Deaths (D 21) (CD-i mice; with 0.1 μg PR8 HA, 198.68 μg): 0/10

Molecule: 2-hydroxypropyl beta-cyclodextrin [HPβCD alone]
- Deaths (D 7) (CD-i mice; [3]): 0/10
- Deaths (D 7) (CD-i mice; [4]): 0/10
- Deaths (D 21) (CD-i mice; [3]): 0/10
- Deaths (D 21) (CD-i mice; [4]): 0/10
- Mortality (follow-on studies, text) (CD-i mice; mice, TQL-1055 without HP-β-CD, or HP-β-CD without TQL-1055, any dose tested): did not result in mortality
